Active and inactive are the calls of the source. The rule behind the calls is not given here.
Test system: CCRIS mutagenicity, Ames/micronucleus/aberration tests
Assay: CCRIS mutagenicity studies
[1] = Test System: AMES SALMONELLA TYPHIMURIUM, Strain/Indicator: TA98, Metabolic Activation: NONE, Method: STANDARD PLATE
[2] = Test System: AMES SALMONELLA TYPHIMURIUM, Strain/Indicator: TA100, Metabolic Activation: NONE, Method: STANDARD PLATE
[3] = Test System: AMES SALMONELLA TYPHIMURIUM, Strain/Indicator: TA98, Metabolic Activation: NONE, Method: PREINCUBATION
[4] = Test System: AMES SALMONELLA TYPHIMURIUM, Strain/Indicator: TA100, Metabolic Activation: NONE, Method: PREINCUBATION
[5] = Test System: AMES SALMONELLA TYPHIMURIUM, Strain/Indicator: TA1535, Metabolic Activation: NONE, Method: PREINCUBATION
[6] = Test System: AMES SALMONELLA TYPHIMURIUM, Strain/Indicator: TA1535, Metabolic Activation: RAT, LIVER, S-9, AROCLOR 1254 (10%), Method: PREINCUBATION

C=CC(=O)OCCC
mutagenic call (Test System: MOUSE LYMPHOMA, Strain/Indicator: L5178Y (TK+/TK-), Metabolic Activation: NONE, Method: SUSPENSION/PLATE): active; positive. reevaluation of results: positive | mutagenic call (Test System: MOUSE LYMPHOMA, Strain/Indicator: L5178Y (TK+/TK-), Metabolic Activation: RAT, LIVER, S-9, AROCLOR 1254, Method: SUSPENSION/PLATE): active; positive. reevaluation of results: positive

CO[C@]1(CC[C@@H](C)CO[C@@H]2O[C@H](CO)[C@@H](O)[C@H](O)[C@H]2O)O[C@H]2C[C@H]3[C@@H]4CC=C5C[C@@H](O[C@@H]6O[C@H](CO)[C@@H](O[C@@H]7O[C@@H](C)[C@H](O)[C@@H](O)[C@H]7O)[C@H](O)C6O[C@@H]6O[C@@H](C)[C@H](O)[C@@H](O)[C@H]6O)CC[C@]5(C)[C@H]4CC[C@]3(C)[C@H]2[C@@H]1C (some centres not stated)
mutagenic call [1]: inactive; negative | mutagenic call (Test System: AMES SALMONELLA TYPHIMURIUM, Strain/Indicator: TA98, Metabolic Activation: RAT, LIVER, S-9, PHENOBARBITAL, Method: STANDARD PLATE): inactive; negative | mutagenic call [2]: inactive; negative | mutagenic call (Test System: AMES SALMONELLA TYPHIMURIUM, Strain/Indicator: TA100, Metabolic Activation: RAT, LIVER, S-9, PHENOBARBITAL, Method: STANDARD PLATE): inactive; negative

Cc1cc(C)n(-c2nnc(NN)c3c2[nH]c2ccccc23)n1
mutagenic call [3]: inactive; negative | mutagenic call (Test System: AMES SALMONELLA TYPHIMURIUM, Strain/Indicator: TA98, Metabolic Activation: RAT, LIVER, S-9, AROCLOR 1254 (4 OR 10%), Method: PREINCUBATION): inactive; negative | mutagenic call [4]: inactive; negative | mutagenic call (Test System: AMES SALMONELLA TYPHIMURIUM, Strain/Indicator: TA100, Metabolic Activation: RAT, LIVER, S-9, AROCLOR 1254 (4 OR 10%), Method: PREINCUBATION): inactive; negative | mutagenic call [5]: inactive; negative | mutagenic call [6]: inactive; negative | mutagenic call (Test System: AMES SALMONELLA TYPHIMURIUM, Strain/Indicator: TA1537, Metabolic Activation: NONE, Method: PREINCUBATION): inactive; negative | mutagenic call (Test System: AMES SALMONELLA TYPHIMURIUM, Strain/Indicator: TA1537, Metabolic Activation: RAT, LIVER, S-9, AROCLOR 1254 (4 OR 10%), Method: PREINCUBATION): inactive; negative

Cc1cc(O)c2c(c1)C(=O)c1cc(O)c(O)c(O)c1C2=O
mutagenic call (Test System: AMES SALMONELLA TYPHIMURIUM, Strain/Indicator: TA1537, Metabolic Activation: NONE, Method: STANDARD PLATE): inactive; negative

Cc1ccc2cc3c(c4c2c1CC4)C1NC1c1ccccc1-3 (configuration not stated)
mutagenic call [1]: active; positive | mutagenic call [2]: active; positive

O=C1c2ccccc2C(=O)C1(O)O
mutagenic call (Test System: AMES SALMONELLA TYPHIMURIUM, Strain/Indicator: TA97, Metabolic Activation: HAMSTER, LIVER, S-9, AROCLOR 1254 (10%), Method: PREINCUBATION): inactive; negative | mutagenic call (Test System: AMES SALMONELLA TYPHIMURIUM, Strain/Indicator: TA97, Metabolic Activation: HAMSTER, LIVER, S-9, AROCLOR 1254 (30%), Method: PREINCUBATION): inactive; negative | mutagenic call (Test System: AMES SALMONELLA TYPHIMURIUM, Strain/Indicator: TA97, Metabolic Activation: NONE, Method: PREINCUBATION): inactive; negative | mutagenic call (Test System: AMES SALMONELLA TYPHIMURIUM, Strain/Indicator: TA97, Metabolic Activation: RAT, LIVER, S-9, AROCLOR 1254 (10%), Method: PREINCUBATION): inactive; negative | mutagenic call (Test System: AMES SALMONELLA TYPHIMURIUM, Strain/Indicator: TA97, Metabolic Activation: RAT, LIVER, S-9, AROCLOR 1254 (30%), Method: PREINCUBATION): inactive; negative | mutagenic call (Test System: AMES SALMONELLA TYPHIMURIUM, Strain/Indicator: TA98, Metabolic Activation: HAMSTER, LIVER, S-9, AROCLOR 1254 (10%), Method: PREINCUBATION): inactive; negative | mutagenic call (Test System: AMES SALMONELLA TYPHIMURIUM, Strain/Indicator: TA98, Metabolic Activation: HAMSTER, LIVER, S-9, AROCLOR 1254 (30%), Method: PREINCUBATION): inactive; negative | mutagenic call [3]: inactive; negative | mutagenic call (Test System: AMES SALMONELLA TYPHIMURIUM, Strain/Indicator: TA98, Metabolic Activation: RAT, LIVER, S-9, AROCLOR 1254 (10%), Method: PREINCUBATION): inactive; negative | mutagenic call (Test System: AMES SALMONELLA TYPHIMURIUM, Strain/Indicator: TA98, Metabolic Activation: RAT, LIVER, S-9, AROCLOR 1254 (30%), Method: PREINCUBATION): inactive; negative | mutagenic call (Test System: AMES SALMONELLA TYPHIMURIUM, Strain/Indicator: TA100, Metabolic Activation: HAMSTER, LIVER, S-9, AROCLOR 1254 (10%), Method: PREINCUBATION): inactive; negative | mutagenic call (Test System: AMES SALMONELLA TYPHIMURIUM, Strain/Indicator: TA100, Metabolic Activation: HAMSTER, LIVER, S-9, AROCLOR 1254 (30%), Method: PREINCUBATION): inactive; negative | mutagenic call [4]: inactive; negative | mutagenic call (Test System: AMES SALMONELLA TYPHIMURIUM, Strain/Indicator: TA100, Metabolic Activation: RAT, LIVER, S-9, AROCLOR 1254 (5%), Method: PREINCUBATION): inactive; negative | mutagenic call (Test System: AMES SALMONELLA TYPHIMURIUM, Strain/Indicator: TA100, Metabolic Activation: RAT, LIVER, S-9, AROCLOR 1254 (10%), Method: PREINCUBATION): inactive; negative | mutagenic call (Test System: AMES SALMONELLA TYPHIMURIUM, Strain/Indicator: TA100, Metabolic Activation: RAT, LIVER, S-9, AROCLOR 1254 (30%), Method: PREINCUBATION): inactive; negative | mutagenic call (Test System: AMES SALMONELLA TYPHIMURIUM, Strain/Indicator: TA1535, Metabolic Activation: HAMSTER, LIVER, S-9, AROCLOR 1254 (10%), Method: PREINCUBATION): inactive; negative | mutagenic call (Test System: AMES SALMONELLA TYPHIMURIUM, Strain/Indicator: TA1535, Metabolic Activation: HAMSTER, LIVER, S-9, AROCLOR 1254 (30%), Method: PREINCUBATION): inactive; negative | mutagenic call [5]: inactive; negative | mutagenic call [6]: inactive; negative | mutagenic call (Test System: AMES SALMONELLA TYPHIMURIUM, Strain/Indicator: TA1535, Metabolic Activation: RAT, LIVER, S-9, AROCLOR 1254 (30%), Method: PREINCUBATION): inactive; negative | mutagenic call (Test System: AMES SALMONELLA TYPHIMURIUM, Strain/Indicator: TA1537, Metabolic Activation: HAMSTER, LIVER, S-9, AROCLOR 1254 (10%), Method: PREINCUBATION): inactive; negative | mutagenic call (Test System: AMES SALMONELLA TYPHIMURIUM, Strain/Indicator: TA1537, Metabolic Activation: HAMSTER, LIVER, S-9, AROCLOR 1254 (30%), Method: PREINCUBATION): inactive; negative | mutagenic call (Test System: AMES SALMONELLA TYPHIMURIUM, Strain/Indicator: TA1537, Metabolic Activation: RAT, LIVER, S-9, AROCLOR 1254 (10%), Method: PREINCUBATION): inactive; negative | mutagenic call (Test System: AMES SALMONELLA TYPHIMURIUM, Strain/Indicator: TA1537, Metabolic Activation: RAT, LIVER, S-9, AROCLOR 1254 (30%), Method: PREINCUBATION): inactive; negative

Source: PubChem BioAssay AID1259407 (Chemical Carcinogenesis Research Information System (CCRIS), 2018)
